Results from article PMC7686103 (Bioorganic & medicinal chemistry letters, 2020).

Columns and labels:
hCB2 receptors = hCB2 receptors (Homo sapiens, UniProt P34972); assay: [35S]GTPγS binding, modulation of G-protein activity in CHO-hCB2 cell membranes; type: biochemical; details: 10 μM
hCB1 receptors = hCB1 receptors (Homo sapiens, UniProt P21554); assay: [35S]GTPγS binding, modulation of G-protein activity in CHO-hCB1 cell membranes; type: biochemical; details: 10 μM
hCB1 receptors, sequence (P21554 whole entry): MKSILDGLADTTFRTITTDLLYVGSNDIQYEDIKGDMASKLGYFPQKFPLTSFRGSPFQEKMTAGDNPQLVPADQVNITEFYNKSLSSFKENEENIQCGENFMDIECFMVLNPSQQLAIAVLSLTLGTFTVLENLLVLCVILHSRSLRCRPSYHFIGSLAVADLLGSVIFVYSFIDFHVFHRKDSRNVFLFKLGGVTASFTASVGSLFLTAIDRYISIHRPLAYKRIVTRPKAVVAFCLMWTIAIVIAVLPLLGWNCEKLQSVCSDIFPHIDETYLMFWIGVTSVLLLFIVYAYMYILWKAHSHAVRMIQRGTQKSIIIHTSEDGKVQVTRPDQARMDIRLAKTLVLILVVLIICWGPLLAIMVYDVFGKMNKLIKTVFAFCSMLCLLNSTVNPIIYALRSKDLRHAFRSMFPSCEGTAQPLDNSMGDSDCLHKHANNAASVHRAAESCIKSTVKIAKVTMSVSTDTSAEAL

hCB2 receptors, sequence (P34972 whole entry): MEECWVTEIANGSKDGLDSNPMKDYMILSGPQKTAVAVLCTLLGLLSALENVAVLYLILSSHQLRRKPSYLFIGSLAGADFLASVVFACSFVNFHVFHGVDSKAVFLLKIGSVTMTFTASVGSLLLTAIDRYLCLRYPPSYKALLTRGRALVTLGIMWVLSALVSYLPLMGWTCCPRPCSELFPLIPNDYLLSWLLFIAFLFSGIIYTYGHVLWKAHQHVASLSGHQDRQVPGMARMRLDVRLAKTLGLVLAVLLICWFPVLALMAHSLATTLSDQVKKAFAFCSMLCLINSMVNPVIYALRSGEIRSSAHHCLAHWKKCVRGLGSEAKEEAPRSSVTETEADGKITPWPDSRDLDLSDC

Row | Structure (SMILES) | Intrinsic activity at hCB2 receptors (modulation of [35S]GTPγS binding) (hCB2 receptors) | Intrinsic activity at hCB1 receptors (modulation of [35S]GTPγS binding) (hCB1 receptors)
1 | O=C1/C(=C/c2cn(Cc3ccc(Br)cc3)c3ncccc23)N2CCC1CC2 [Compound 8f] | neutral antagonist | inverse agonist
2 | COc1ccc(C(=O)c2c(C)n(CCN3CCOCC3)c3cc(I)ccc23)cc1 [AM-630, reference compound] | inverse agonist activity | –
3 | O=C1/C(=C/c2cn(Cc3ccc(F)cc3)c3ncccc23)N2CCC1CC2 [Compound 8g] | partial agonist | neutral antagonist
4 | O=C1/C(=C/c2cn(Cc3ccc(Cl)cc3)c3ncccc23)N2CCC1CC2 [Compound 8b] | inverse agonist activity | inverse agonist activity
5 | O=C1/C(=C/c2cn(Cc3ccccc3)c3ncccc23)N2CCC1CC2 [Compound 8a] | neutral antagonist | neutral antagonist
